IC50 data for 13 molecules are collected here from patent US10717764B2, “Therapeutically active compounds and their methods of use” (Agios Pharmaceuticals, Inc., priority 2013, dated 2020).

The first assay concerns HT1080 cells (2-HG production). In words: Cellular assay, inhibition of 2-HG production in HT1080 cells. Type of assay: cell-based. The following applies: Homo sapiens, HT-1080, 48 h. The procedure:
(§1) Cells (HT1080 or U87MG) are grown in T125 flasks in DMEM containing 10% FBS, 1× penicillin/streptomycin and 500 ug/mL G418 (present in U87MG cells only). They are harvested by trypsin and seeded into 96 well white bottom plates at a density of 5000 cell/well in 100 ul/well in DMEM with 10% FBS. […] Cells are incubated overnight at 37° C. in 5% CO2. The next day test compounds are made up at 2× the final concentration and 100 ul are added to each cell well. The final concentration of DMSO is 0.2% and the DMSO control wells are plated in row G. The plates are then placed in the incubator for 48 hours. […] The cell plate is placed back in the incubator for another 24 hours. At 72 hours post compound addition, 10 mL/plate of Promega Cell Titer Glo reagent is thawed and mixed. The cell plate is removed from the incubator and allowed to equilibrate to room temperature. Then 100 ul of Promega Cell Titer Glo reagent is added to each well of media. The cell plate is then placed on an orbital shaker for 10 minutes and then allowed to sit at room temperature for 20 minutes. The plate is then read for luminescence with an integration time of 500 ms.
On to `O=C(NC1CCCCC1)[C@@H](c1ccccc1Cl)N(C(=O)[C@@H]1CCC(=O)N1c1ncccn1)c1cccc(F)c1` [Compound 6], for which the IC50 fell in the range of 100 to 500 nM.

In a further assay the test system is U87MG cells (2-HG production). In words: Cellular assay, inhibition of 2-HG production in U87MG cells. The following applies: Homo sapiens, U-87 MG, 48 h. Type of assay: cell-based. The procedure:
as §1
The molecule `O=C(N[C@H]1CCC(F)(F)C1)[C@H](c1ccccc1Cl)N(C(=O)[C@@H]1CCC(=O)N1c1ncccn1)c1cccc(F)c1` (stereo in doubt) [Compound 73] had an IC50 of less than 100 nM. The same measure, in the same setting: in the case of `C[C@]1(O)C[C@@H](C(=O)N(c2cccc(F)c2)[C@H](C(=O)NC2CC(F)(F)C2)c2ccccc2Cl)N(c2cc(C#N)ccn2)C1=O` (stereo in doubt) [Compound 183, (2S)—N—((R)-1-(2-chlorophenyl)-2-(3,3-difluorocyclobutylamino)-2-oxoethyl)-1-(4-cyanopyridin-2-yl)-N-(3-fluorophenyl)-4-hydroxy-4-methyl-5-oxopyrrolidine-2-carboxamide] it was less than 100 nM; in that of `O=C(NC1CC(F)(F)C1)[C@H](c1ccccc1Cl)N(C(=O)[C@@H]1CCC(=O)N1c1ccccn1)c1cccc(F)c1` [Compound 5], 100 to 500 nM; in that of `CS(=O)(=O)c1cc(F)cc(N(C(=O)[C@@H]2CCC(=O)N2c2cc(C#N)ccn2)C(C(=O)NC2CC(F)(F)C2)c2ccccc2Cl)c1` (stereo partly drawn) [Compound 110, (2S)—N-(1-(2-Chlorophenyl)-2-((3,3-difluorocyclobutyl)amino)-2-oxoethyl)-1-(4-cyanopyridin-2-yl)-N-(3-fluoro-5-(methylsulfonyl)phenyl)-5-oxopyrrolidine-2-carboxamide], less than 100 nM. Consider `N#Cc1ccnc(N2C(=O)CC[C@H]2C(=O)N(c2cc(F)cc(F)c2)[C@H](C(=O)NC2CC(F)(F)C2)c2ccccc2F)c1` [Compound 208, (S)-1-(4-Cyanopyridin-2-yl)-N—((S)-2-(3,3-difluorocyclobutylamino)-1-(2-fluorophenyl)-2-oxoethyl)-N-(3,5-difluorophenyl)-5-oxopyrrolidine-2-carboxamide], for which the IC50 is less than 100 nM.

The same assay, now with this note: inhibition of 2-HG production, U87MG cells, 48 hours.
Molecule `N#Cc1cccc(N2C(=O)OC[C@H]2C(=O)N(c2cccc3cn[nH]c23)[C@H](C(=O)NC2CCC(F)(F)CC2)c2ccccc2Cl)c1` [Compound 142, (S)—N—((S)-1-(2-Chlorophenyl)-2-(4,4-difluorocyclohexylamino)-2-oxoethyl)-3-(3-cyanophenyl)-N-(1H-indazol-7-yl)-2-oxooxazolidine-4-carboxamide] came in with an IC50 of less than 100 nM. As for “(S)-tert-butyl 3-(((S)-1-(2-chlorophenyl)-2-((3,3-difluorocyclobutyl) amino)-2-oxoethyl)(3,5-difluorophenyl)carbamoyl)-5-oxopiperazine-1-carboxylate [Compound 97]”, the IC50 is less than 100 nM. Still for that read-out and setting: for “(S)—N—((S)-1-(2-Chlorophenyl)-2-(3,3-difluorocyclobutylamino)-2-oxoethyl)-1-(3-cyano-phenyl)-N-(1H-indazol-7-yl)-5-oxopyrrolidine-2-carboxamide [Compound 186]” the value was less than 100 nM. As to “(S)—N—((S)-1-(2-Chlorophenyl)-2-(3,3-difluorocyclobutylamino)-2-oxoethyl)-N-(3-cyano-5-fluorophenyl)-3-(3-cyanophenyl)-2-oxooxazolidine-4-carboxamide [Compound 134]”, the IC50 was less than 100 nM. “(S)—N—((S)-1-(2-Chlorophenyl)-2-((3,3-difluorocyclobutyl)amino)-2-oxoethyl)-1-(4-cyanopyridin-2-yl)-N-(1H-indazol-6-yl)-5-oxopyrrolidine-2-carboxamide [Compound 205]” gave an IC50 of less than 100 nM. On the same count and under the same terms, in the case of “(S)—N—((S)-1-(2-Chlorophenyl)-2-((3,3-difluorocyclobutyl)amino)-2-oxoethyl)-1-(4-cyanopyridin-2-yl)-N-(3,5-difluorophenyl)-5-oxopyrrolidine-2-carboxamide [Compound 71]” it was less than 100 nM; in that of “(S)—N—((S)-1-(2-Chlorophenyl)-2-((4,4-difluorocyclohexyl)amino)-2-oxoethyl)-1-(4-cyanopyridin-2-yl)-N-(1H-indazol-6-yl)-5-oxopyrrolidine-2-carboxamide [Compound 136]”, less than 100 nM.
